{"source": "patent US10124004B2", "about": "“Pyrido[3,4-d]pyrimidine derivative and pharmaceutically acceptable salt thereof” (Teijin Pharma Limited, priority 2015, dated 2018)", "data": [{"target": "T1, CDK4/cyclin D3 (Homo sapiens, UniProt P11802)", "T1 construct": "purchased Carna Biosciences, Inc. QS S Assist CDK4/Cyclin D3_FP Kit", "T1 sequence (P11802 whole entry)": "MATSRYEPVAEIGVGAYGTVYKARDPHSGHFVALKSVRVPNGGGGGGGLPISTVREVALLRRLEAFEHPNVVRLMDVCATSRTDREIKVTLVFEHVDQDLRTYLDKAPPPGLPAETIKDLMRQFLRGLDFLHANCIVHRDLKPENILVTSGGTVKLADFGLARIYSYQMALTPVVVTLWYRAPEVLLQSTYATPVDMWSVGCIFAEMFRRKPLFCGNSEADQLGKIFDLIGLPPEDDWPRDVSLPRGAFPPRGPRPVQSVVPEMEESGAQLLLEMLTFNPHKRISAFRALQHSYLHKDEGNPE", "T1 sequence (P30281 whole entry partner)": "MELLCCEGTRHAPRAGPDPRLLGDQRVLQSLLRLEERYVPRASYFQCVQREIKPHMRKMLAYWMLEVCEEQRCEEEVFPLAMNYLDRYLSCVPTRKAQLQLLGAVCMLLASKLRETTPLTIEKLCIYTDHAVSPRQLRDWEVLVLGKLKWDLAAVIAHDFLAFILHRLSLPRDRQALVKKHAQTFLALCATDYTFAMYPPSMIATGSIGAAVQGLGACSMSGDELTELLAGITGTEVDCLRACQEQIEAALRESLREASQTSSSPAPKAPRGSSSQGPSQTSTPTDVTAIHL", "assay": "Human CDK4/cyclin D3 inhibitory activity (QS S Assist CDK4/Cyclin D3_FP Kit, IMAP fluorescence polarization)", "assay_type": "biochemical", "details": "50% inhibitory concentration against CDK4/cyclin D3, given as class symbol", "protocol": "(§1) Human CDK4/Cyclin D3 Inhibitory Activity\n(§2) Each compound was analyzed for CDK4/cyclin D3 inhibitory activity with an assay kit (QS S Assist CDK4/Cyclin D3_FP Kit, available from Carna Biosciences, Inc.). This assay kit determines kinase activity on the basis of the IMAP technology by Molecular Devices. Specifically, the kinase activity is determined through quantification of a variation in fluorescent polarization caused by binding of a kinase-phosphorylated fluorescent substance to an IMAP-binding reagent.\n(§3) Each solution was prepared with the 10× assay buffer attached to the kit or a separately prepared assay buffer having the same composition as the assay buffer attached to the kit. An assay buffer was prepared by 10-fold dilution of the 10× assay buffer with distilled water. The assay buffer contains 20 mM HEPES (pH 7.4), 0.01% Tween20, and 2 mM dithiothreitol. A test compound solution was prepared by dilution of the test compound with dimethyl sulfoxide (DMSO) to a concentration 100 times higher than the final concentration and then 25-fold dilution with the assay buffer to a concentration four times higher than the final concentration. An ATP/substrate/Metal solution was prepared by five-fold dilution of the 5×ATP/substrate/Metal solution attached to the kit with the assay buffer. An enzyme solution was prepared by dilution of the CDK4/cyclin D3 attached to the kit with the assay buffer to a concentration twice higher than the final concentration (final concentration of CDK4/cyclin D3:12.5 to 25 ng/well). A detection reagent was prepared by five-fold dilution of each of 5× IMAP-binding buffer A and 5×IMAP-binding buffer B with distilled water, mixing of IMAP-binding buffer A with IMAP-binding buffer B at a ratio of 85:15, and 400-fold dilution of the IMAP-binding reagent with the mixed buffer.\n(§4) The test compound solution (5 μL/well) and the ATP/substrate/Metal solution (5 μL/well) were added to a 384-well plate, and the enzyme solution or the assay buffer (10 μL/well) was added to the plate (total amount of the reaction mixture: 20 μL/well) for initiation of enzymatic reaction. […] The reaction was performed at room temperature for 45 minutes, and the detection reagent (60 μL/well) was then added to the plate, followed by further reaction for 30 minutes at room temperature under light shielding conditions. Subsequently, fluorescent polarization was determined with a microplate reader at an excitation wavelength of 485 nm and an emission wavelength of 535 nm.\n(§5) The percent inhibition of enzyme activity was calculated for each test compound (note: enzyme activity=100% in the case of addition of the enzyme solution and addition of DMSO instead of the test compound solution, whereas enzyme activity=0% in the case of addition of the assay buffer instead of the enzyme solution, and addition of DMSO instead of the test compound solution). The percent inhibition of enzyme activity was fitted to a dose-response curve, to determine a 50% inhibitory concentration against CDK4/cyclin D3.\n(§6) In each table, “+++” corresponds to IC50<10 nM, “++” 10 nM≤IC50<100 nM, and “+” 100 nM≤IC50.", "units": {"IC50": "nM"}, "values": [{"compound": "CC(C)Nc1nc([C@@H](C)O)cc2cnc(Nc3ccc(N4CC(F)(CO)C4)nn3)nc12", "note": "[Compound 707]", "IC50": "< 10"}, {"compound": "CC(O)c1cc2cnc(Nc3ccc(OCCN(C)C)cn3)nc2c(NC2CCC(C)(C)OC2)n1", "note": "(single isomer, unassigned) [Compound 690]", "IC50": "< 10"}, {"compound": "CC(C)Nc1nc(C(C)O)cc2cnc(Nc3ccc(N4CCC(O)C(C)C4)nn3)nc12", "note": "(single isomer, unassigned) [Compound 704]", "IC50": "< 10"}, {"compound": "CO[C@H](C)c1cc2cnc(Nc3ccc(N4CCN(CCCC(=O)O)CC4)nn3)nc2c(NC(C)C)n1", "note": "[Compound 699]", "IC50": "10 to 100"}]}, {"target": "T1, CDK4/cyclin D3", "assay": "Human CDK4/cyclin D3 inhibitory activity (QS S Assist CDK4/Cyclin D3_FP Kit, IMAP fluorescence polarization)", "assay_type": "biochemical", "details": "Human CDK4/cyclin D3 inhibitory activity; read-out: CDK4 Activity symbol", "protocol": "as §1, §2, §3, §4, §5, §6", "units": {"IC50": "nM"}, "values": [{"compound": "CC(C)Nc1nc(C(C)O)cc2cnc(Nc3ccc(N4CCCC(O)C4)nn3)nc12", "note": "(single isomer, unassigned) [Compound 582]", "IC50": "< 10"}, {"compound": "COC(C)c1cc2cnc(Nc3ccc(CN4CCNCC4)cn3)nc2c(NCCC2CCOCC2)n1", "note": "(stereo not drawn) [Compound 428]", "IC50": "< 10"}, {"compound": "COC(C)c1cc2cnc(Nc3ccc(CN4CCNCC4)cn3)nc2c(NC2CCCN(C)C2)n1", "note": "(stereo not drawn) [Compound 407]", "IC50": "10 to 100"}, {"compound": "COC(C)c1cc2cnc(Nc3ccc(CN4CCNCC4)cn3)nc2c(NC(C)C2CCCO2)n1", "note": "(stereo not drawn) [Compound 409]", "IC50": "< 10"}, {"compound": "CC(C)Nc1nc(C(F)F)cc2cnc(Nc3ccc(N4CCNC(C)(C)C4=O)cn3)nc12", "note": "[Compound 438]", "IC50": "< 10"}, {"compound": "CO[C@H](C)c1cc2cnc(Nc3ccc(N4CCNCC(C)(C)C4=O)cn3)nc2c(NC(C)C)n1", "note": "[Compound 542]", "IC50": "10 to 100"}, {"compound": "O[C@H]1CC[C@@H](Nc2nc(C(F)F)cc3cnc(Nc4ccc(CN5CCNCC5)cn4)nc23)CC1", "note": "[Compound 424]", "IC50": "< 10"}, {"compound": "CO[C@H](C)c1cc2cnc(Nc3ncc(N4CCNCC4)cn3)nc2c(NC(C)C)n1", "note": "[Compound 374]", "IC50": "10 to 100"}, {"compound": "CO[C@H](C)c1cc2cnc(Nc3ccc(N4CCNC4=O)cn3)nc2c(NC(C)C)n1", "note": "[Compound 498]", "IC50": "< 10"}, {"compound": "CC(C)Nc1nc([C@@H](C)O)cc2cnc(Nc3ccc(N4CCNCC4=O)nn3)nc12", "note": "[Compound 613]", "IC50": "10 to 100"}, {"compound": "COC(C)c1cc2cnc(Nc3ccc(CN4CCNCC4)cn3)nc2c(N[C@H]2CC[C@@](C)(C(=O)O)CC2)n1", "note": "(stereo partly drawn) [Compound 437]", "IC50": "≥ 100"}, {"compound": "CC(C)Nc1nc([C@@H](C)O)cc2cnc(Nc3ccc(N4CCN(CC(C)(C)C)CC4=O)cn3)nc12", "note": "[Compound 603]", "IC50": "< 10"}, {"compound": "CO[C@H](C)c1cc2cnc(Nc3ccc(N4CCC(F)CC4)cn3)nc2c(NC(C)C)n1", "note": "[Compound 469]", "IC50": "10 to 100"}, {"compound": "CC(C)Nc1nc([C@@H](C)O)cc2cnc(Nc3ccc(OC4CCCNC4)nn3)nc12", "note": "(stereo partly drawn) [Compound 541]", "IC50": "< 10"}, {"compound": "CO[C@H](C)c1cc2cnc(Nc3ccc(N4CCNCC4)nn3)nc2c(NC2CCS(=O)(=O)CC2)n1", "note": "[Compound 359]", "IC50": "10 to 100"}, {"compound": "COC(C)c1cc2cnc(Nc3ccc(OCC(C)(C)N)cn3)nc2c(NC(C)C)n1", "note": "(stereo not drawn) [Compound 458]", "IC50": "< 10"}, {"compound": "CO[C@H](C)c1cc2cnc(Nc3ccc(CN4CCC(F)CC4)cn3)nc2c(NC(C)C)n1", "note": "[Compound 472]", "IC50": "10 to 100"}, {"compound": "CC(C)Nc1nc([C@@H](C)O)cc2cnc(Nc3ccc(O[C@@H]4CCCNC4)cn3)nc12", "note": "[Compound 571]", "IC50": "< 10"}, {"compound": "COC(C)c1cc2cnc(Nc3ccc(CN4CCNCC4)cn3)nc2c(NCC2CCCCO2)n1", "note": "(stereo not drawn) [Compound 398]", "IC50": "< 10"}, {"compound": "CNCCOc1ccc(Nc2ncc3cc([C@@H](C)OC)nc(NC(C)C)c3n2)nn1", "note": "[Compound 551]", "IC50": "10 to 100"}, {"compound": "CNC1CCN(c2ccc(Nc3ncc4cc(C(C)OC)nc(NC(C)C)c4n3)nn2)CC1", "note": "(stereo not drawn) [Compound 452]", "IC50": "< 10"}, {"compound": "CNCCCOc1ccc(Nc2ncc3cc([C@@H](C)OC)nc(NC(C)C)c3n2)nn1", "note": "[Compound 527]", "IC50": "10 to 100"}, {"compound": "CNC1(COc2ccc(Nc3ncc4cc(C(C)OC)nc(NC(C)C)c4n3)nc2)CC1", "note": "(stereo not drawn) [Compound 461]", "IC50": "10 to 100"}, {"compound": "CC(C)Nc1nc([C@@H](C)O)cc2cnc(Nc3ccc(N4CC5(CNC(=O)C5)C4)nn3)nc12", "note": "[Compound 620]", "IC50": "< 10"}, {"compound": "CO[C@H](C)c1cc2cnc(Nc3ccc(N4C[C@@H]5C[C@H]4CN5)cn3)nc2c(NC(C)C)n1", "note": "[Compound 525]", "IC50": "< 10"}, {"compound": "CO[C@H](C)c1cc2cnc(Nc3ccc(N4CCN(C)CC4)nn3)nc2c(NC(C)C)n1", "note": "[Compound 531]", "IC50": "< 10"}, {"compound": "CNCCOc1ccc(Nc2ncc3cc([C@@H](C)O)nc(NC(C)C)c3n2)nn1", "note": "[Compound 552]", "IC50": "< 10"}, {"compound": "CO[C@H](C)c1cc2cnc(Nc3ccc(N4CCNC(C)(C)C4=O)cn3)nc2c(NC(C)C)n1", "note": "[Compound 444]", "IC50": "≥ 100"}, {"compound": "COC(C)c1cc2cnc(Nc3ccc(CN4CCNCC4)cn3)nc2c(NC[C@@H]2CCCO2)n1", "note": "(stereo partly drawn) [Compound 408]", "IC50": "10 to 100"}, {"compound": "CNCCCOc1ccc(Nc2ncc3cc([C@@H](C)O)nc(NC(C)C)c3n2)nn1", "note": "[Compound 530]", "IC50": "< 10"}, {"compound": "CO[C@H](C)c1cc2cnc(Nc3ccc(N4CCC(N(C)C)CC4)nn3)nc2c(NC(C)C)n1", "note": "[Compound 489]", "IC50": "< 10"}, {"compound": "CO[C@H](C)c1cc2cnc(Nc3ccc(N4CC5(CCCN5)C4)cn3)nc2c(NC(C)C)n1", "note": "[Compound 486]", "IC50": "< 10"}, {"compound": "COc1cccc(Nc2nc(C(C)OC)cc3cnc(Nc4ccc(CN5CCNCC5)cn4)nc23)c1", "note": "(stereo not drawn) [Compound 451]", "IC50": "< 10"}, {"compound": "CO[C@H](C)c1cc2cnc(Nc3ccc(CN4CCCNCC4)cn3)nc2c(NC(C)C)n1", "note": "[Compound 493]", "IC50": "< 10"}, {"compound": "CO[C@H](C)c1cc2cnc(Nc3ccc(N4CCNC(=O)C(C)(C)C4)cn3)nc2c(NC(C)C)n1", "note": "[Compound 514]", "IC50": "10 to 100"}, {"compound": "COC(C)c1cc2cnc(Nc3ccc(CN4CCNCC4)cn3)nc2c(NC2CN3CCC2CCOC3=O)n1", "note": "(stereo not drawn) [Compound 415]", "IC50": "< 10"}, {"compound": "CO[C@H](C)c1cc2cnc(Nc3ccc(N4CCC(F)(F)CC4)cn3)nc2c(NC(C)C)n1", "note": "[Compound 470]", "IC50": "≥ 100"}, {"compound": "COc1ccc(Nc2nc(C(C)OC)cc3cnc(Nc4ccc(CN5CCNCC5)cn4)nc23)cc1", "note": "(stereo not drawn) [Compound 450]", "IC50": "< 10"}, {"compound": "CNC1(C)CCN(c2ccc(Nc3ncc4cc([C@@H](C)OC)nc(NC(C)C)c4n3)nn2)CC1", "note": "[Compound 594]", "IC50": "< 10"}, {"compound": "COC(C)c1cc2cnc(Nc3ccc(CN4CCNCC4)cn3)nc2c(NCC2(C)CC(O)CC(C)(C)C2)n1", "note": "(stereo not drawn) [Compound 454]", "IC50": "< 10"}, {"compound": "COC(C)c1cc2cnc(Nc3ccc(CN4CCNC5(CC5)C4)cn3)nc2c(NC(C)C)n1", "note": "(stereo not drawn) [Compound 515]", "IC50": "10 to 100"}, {"compound": "CO[C@H](C)c1cc2cnc(Nc3ccc(N4CC5(CCNC5)C4)cn3)nc2c(NC(C)C)n1", "note": "[Compound 479]", "IC50": "< 10"}, {"compound": "COC(C)c1cc2cnc(Nc3ccc(CN4CCNCC4)cn3)nc2c(NC2CCCOCC2)n1", "note": "(stereo not drawn) [Compound 468]", "IC50": "< 10"}, {"compound": "COC(C)c1cc2cnc(Nc3ccc(CN4CCNCC4)cn3)nc2c(NCC(C)C)n1", "note": "(stereo not drawn) [Compound 392]", "IC50": "< 10"}, {"compound": "COC(C)c1cc2cnc(Nc3ccc(CN4CCNCC4)cn3)nc2c(Nc2cccc(C(=O)O)c2)n1", "note": "(stereo not drawn) [Compound 449]", "IC50": "≥ 100"}, {"compound": "CO[C@H](C)c1cc2cnc(Nc3ccc(OC4CC5(CNC5)C4)cn3)nc2c(NC(C)C)n1", "note": "[Compound 483]", "IC50": "< 10"}, {"compound": "CO[C@H](C)c1cc2cnc(Nc3ccc(CN4CCNC(C)(C)C4)cn3)nc2c(NC(C)C)n1", "note": "[Compound 534]", "IC50": "< 10"}, {"compound": "CO[C@H](C)c1cc2cnc(Nc3ccc(OCC(F)CN(C)C)cn3)nc2c(NC(C)C)n1", "note": "(stereo partly drawn) [Compound 487]", "IC50": "< 10"}, {"compound": "COC(C)c1cc2cnc(Nc3ccc(CN4CCNCC4)cn3)nc2c(NC2CCNCC2)n1", "note": "(stereo not drawn) [Compound 399]", "IC50": "10 to 100"}, {"compound": "CC(C)Nc1nc([C@@H](C)O)cc2cnc(Nc3ccc(N4CCCNCC4)nn3)nc12", "note": "[Compound 496]", "IC50": "< 10"}]}]}
